# Data reported in patent US20060281763A1, “Carboxamide inhibitors of TGFbeta” (priority 2005, published 2006).
# pIC50: −log10 of the molar value.
# Molecular target: T1, TGFβ R1 (Homo sapiens, UniProt P36897)
# T1 sequence (P36897 34-503): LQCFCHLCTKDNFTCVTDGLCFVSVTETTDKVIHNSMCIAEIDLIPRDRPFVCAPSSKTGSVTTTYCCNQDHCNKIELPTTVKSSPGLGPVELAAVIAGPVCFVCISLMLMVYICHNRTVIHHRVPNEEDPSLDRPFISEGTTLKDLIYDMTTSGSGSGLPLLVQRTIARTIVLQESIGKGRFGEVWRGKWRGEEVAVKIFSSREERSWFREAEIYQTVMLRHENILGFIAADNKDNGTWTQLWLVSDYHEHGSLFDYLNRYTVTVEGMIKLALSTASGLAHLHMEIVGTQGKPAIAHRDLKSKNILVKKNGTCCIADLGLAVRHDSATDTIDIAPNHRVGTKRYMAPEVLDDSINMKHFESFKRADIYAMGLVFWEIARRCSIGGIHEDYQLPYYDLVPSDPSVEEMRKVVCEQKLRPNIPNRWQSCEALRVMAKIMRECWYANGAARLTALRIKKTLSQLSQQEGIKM
# Experiment: TGFβ R1 autophosphorylation protocol (33P-ATP, phosphocellulose filter plate)
# Type: biochemical
# Conditions: 10 uM ATP, 170 nM TGFβ R1, 20 minutes at room temperature, read-out: IC50 for Kinase Inhibition
# Method in brief: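 Incorporation of 33P from γ-33P-ATP (10 uM ATP final) into the kinase itself (170 nM) measured by phosphocellulose capture and scintillation counting. Incubation 20 min at room temperature in 20 mM MOPS pH 7 with […]; final DMSO ≤1%.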
row,pIC50,Compound
1,6.46,"COc1ccc(NC(=O)NCCNC(=O)c2cnccc2Nc2nc(-c3cc(Cl)ccc3F)ncc2OC)cc1 [Compound 79, 4-[2-(5-Chloro-2-fluoro-phenyl)-5-methoxy-pyrimidin-4-ylamino]-N-{2-[3-(4-methoxy-phenyl)-ureido]-ethyl}-nicotinamide]"
2,6.57,"COc1cnc(-c2cc(Cl)ccc2F)nc1Nc1ccncc1C(=O)NCCCNC(=O)NC(C)C [Compound 66, 4-[2-(5-Chloro-2-fluoro-phenyl)-5-methoxy-pyrimidin-4-ylamino]-N-[3-(3-isopropyl-ureido)-propyl]-nicotinamide]"
3,7.49,"COC[C@@H]1OC(CCNCCCNC(=O)c2cnccc2Nc2nc(-c3cc(Cl)ccc3F)ncc2OC)[C@@H](OC)[C@H](OC)[C@H]1OC (stereo partly drawn) [Compound 125, 4-[2-(5-Chloro-2-fluoro-phenyl)-5-methoxy-pyrimidin-4-ylamino]-N-{3-[2-(3,4,5-trimethoxy-6-methoxymethyl-tetrahydro-pyran-2-yl)-ethylamino]-propyl}-nicotinamide]"
4,8.00,"COc1cnc(-c2cc(Cl)ccc2F)nc1Nc1ccncc1C(=O)NCCCNCCC1O[C@H](CO)[C@@H](O)[C@H](O)[C@@H]1O (stereo partly drawn) [Compound 154, 4-[2-(5-Chloro-2-fluoro-phenyl)-5-methoxy-pyrimidin-4-ylamino]-N-{3-[2-(3,4,5-trihydroxy-6-hydroxymethyl-tetrahydro-pyran-2-yl)-ethylamino]-propyl}-nicotinamide]"
5,7.52,"COc1cnc(-c2cc(Cl)ccc2F)nc1Nc1ccncc1C(=O)NCCCN1CCOCC1 [Compound 9, 4-[2-(5-Chloro-2-fluoro-phenyl)-5-methoxy-pyrimidin-4-ylamino]-N-(3-morpholin-4-yl-propyl)-nicotinamide]"
6,7.74,"COc1cnc(-c2cc(Cl)ccc2F)nc1Nc1ccncc1C(=O)NC1CCN(CCC2O[C@H](CO)[C@@H](O)[C@H](O)[C@H]2O)CC1 (stereo partly drawn) [Compound 137, 4-[2-(5-Chloro-2-fluoro-phenyl)-5-methoxy-pyrimidin-4-ylamino]-N-{1-[2-(3,4,5-trihydroxy-6-hydroxymethyl-tetrahydro-pyran-2-yl)-ethyl]-piperidin-4-yl}-nicotinamide]"
7,6.89,"COc1cnc(-c2cc(Cl)ccc2F)nc1Nc1ccncc1C(=O)NCCNCC(F)(F)F [Compound 103, 4-[2-(5-Chloro-2-fluoro-phenyl)-5-methoxy-pyrimidin-4-ylamino]-N-[2-(2,2,2-trifluoro-ethylamino)-ethyl]-nicotinamide]"
8,6.77,"COc1cnc(-c2cc(Cl)ccc2F)nc1Nc1ccncc1C(=O)NCCCNC(=O)C(C)C [Compound 95, 4-[2-(5-Chloro-2-fluoro-phenyl)-5-methoxy-pyrimidin-4-ylamino]-N-(3-isobutylylamino-propyl)-nicotinamide]"
9,7.70,CN(C)c1cnc(-c2cc(Cl)ccc2F)nc1Nc1ccncc1C(=O)NCCNCCO [Compound 50]
10,6.74,"O=C(NC1CC1)c1cnccc1Nc1nc(-c2cc(Cl)ccc2F)ncc1N1CCCC1 [Compound 21, 4-[2-(5-Chloro-2-fluoro-phenyl)-5-pyrrolidin-1-yl-pyrimidin-4-ylamino]-N-cyclopropyl-nicotinamide]"
11,6.33,"COc1cnc(-c2cc(Cl)ccc2F)nc1Nc1ccncc1C(=O)NCC(C)(C)O [Compound 58, 4-[2-(5-Chloro-2-fluoro-phenyl)-5-methoxy-pyrimidin-4-ylamino]-N-(2-hydroxy-2-methyl-propyl)-nicotinamide]"
12,8.30,COc1cnc(-c2cc(Cl)ccc2F)nc1Nc1ccncc1C(=O)NCCNCCOC1O[C@H](CO)[C@H](O)[C@H](O)[C@H]1O (stereo partly drawn) [Compound 158]
13,6.36,"COc1ccc(NC(=O)NCCCNC(=O)c2cnccc2Nc2nc(-c3cc(Cl)ccc3F)ncc2OC)cc1OC [Compound 67, 4-[2-(5-Chloro-2-fluoro-phenyl)-5-methoxy-pyrimidin-4-ylamino]-N-{3-[3-(3,4-dimethoxy-phenyl)-ureido]-propyl}-nicotinamide]"
14,6.51,"COc1cnc(-c2cc(Cl)ccc2F)nc1Nc1ccncc1C(=O)NCCOCCO [Compound 104, 4-[2-(5-Chloro-2-fluoro-phenyl)-5-methoxy-pyrimidin-4-ylamino]-N-[2-(2-hydroxy-ethoxy)-ethyl]-nicotinamide]"
15,8.00,"NC(=O)c1cnccc1Nc1nc(-c2cc(Cl)ccc2F)ncc1I [Compound 78, 4-[2-(5-Chloro-2-fluoro-phenyl)-5-iodo-pyrimidin-4-ylamino]-nicotinamide]"
16,7.00,"COc1cnc(-c2cc(Cl)ccc2F)nc1Nc1ccncc1C(=O)NCCC#N [Compound 72, 4-[2-(5-Chloro-2-fluoro-phenyl)-5-methoxy-pyrimidin-4-ylamino]-N-(2-cyano-ethyl)-nicotinamide]"
17,8.15,"COc1cnc(-c2cc(Cl)ccc2F)nc1Nc1ccncc1C(=O)NCCNCCC1O[C@H](CO)[C@@H](O)[C@H](O)[C@H]1O (stereo partly drawn) [Compound 136, 4-[2-(5-Chloro-2-fluoro-phenyl)-5-methoxy-pyrimidin-4-ylamino]-N-{2-[2-(3,4,5-trihydroxy-6-hydroxymethyl-tetrahydro-pyran-2-yl)-ethylamino]-ethyl}-nicotinamide]"

row,Compound,pIC50
1,"COc1cnc(-c2cc(Cl)ccc2F)nc1Nc1ccncc1C(=O)NCCCNCCC1O[C@H](COC(C)=O)[C@@H](OC(C)=O)[C@H](OC(C)=O)[C@H]1OC(C)=O (stereo partly drawn) [Compound 97, Acetic acid 3,4,5-triacetoxy-6-{2-[3-({4-[2-(5-chloro-2-fluoro-phenyl)-5-methoxy-pyrimidin-4-ylamino]-pyridine-3-carbonyl}-amino)-propylamino]-ethyl}-tetrahydro-pyran-2-ylmethyl ester]",7.05
2,"COc1cnc(-c2cc(Cl)ccc2F)nc1Nc1ccncc1C(=O)NCCNC(=O)COC1O[C@H](COC(C)=O)[C@@H](OC(C)=O)[C@H](OC(C)=O)[C@H]1OC(C)=O (stereo partly drawn) [Compound 143, Acetic acid 3,4,5-triacetoxy-6-{[2-({4-[2-(5-chloro-2-fluoro-phenyl)-5-methoxy-pyrimidin-4-ylamino]-pyridine-3-carbonyl}-amino)-ethylcarbamoyl]-methoxy}-tetrahydro-pyran-2-ylmethyl ester]",6.74

# Same assay, conditions: 10 uM ATP, 170 nM TGFβ R1, room temperature 20 minutes, read-out: IC50 for Kinase Inhibition
row,pIC50,Compound
1,7.77,"CC(C)c1cnc(-c2cc(Cl)ccc2F)nc1Nc1ccncc1C(=O)NC[C@H](C)OC(=O)[C@H](N)C(C)C [Compound 207, 2-Amino-3-methyl-butyric acid 2-({4-[2-(5-chloro-2-fluoro-phenyl)-5-isopropyl-pyrimidin-4-ylamino]-pyridine-3-carbonyl}-amino)-1-methyl-ethyl-ester]"
2,7.57,"CC(C)c1cnc(-c2cc(Cl)ccc2F)nc1Nc1ccncc1C(=O)NC(CO)CO [Compound 193, 4-[2-(5-Chloro-2-fluoro-phenyl)-5-isopropyl-pyrimidin-4-ylamino]-N-(2-hydroxy-1-hydroxymethyl-ethyl)-nicotinamide]"
3,8.30,CC(C)c1cnc(-c2cc(Cl)ccc2F)nc1Nc1ccncc1C(=O)NCCCN1CCC[C@@H]1C(=O)N1CCCC1 [Compound 180]
4,7.55,"CCNC(=O)[C@@H]1CCCN1CCCNC(=O)c1cnccc1Nc1nc(-c2cc(Cl)ccc2F)ncc1OC [Compound 167, 4-[2-(5-Chloro-2-fluoro-phenyl)-5-methoxy-pyrimidin-4-ylamino]-N-[3-(2-ethylcarbamoyl-pyrrolidin-1-yl)-propyl]-nicotinamide]"
5,7.57,CC(C)(O)CNC(=O)c1cnccc1Nc1nc(-c2cc(Cl)ccc2F)ncc1C1CC1 [Compound 165]
6,6.00,"CC(C)c1cnc(-c2cc(Cl)ccc2F)nc1Nc1ccncc1C(=O)N1CCNCC1 [Compound 232, {4-[2-(5-Chloro-2-fluoro-phenyl)-5-isopropyl-pyrimidin-4-ylamino]-pyridin-3-yl}-piperazin-1-yl-methanone]"
7,5.94,"CC(C)c1cnc(-c2cc(Cl)ccc2F)nc1Nc1ccncc1C(=O)N1CCC(O)CC1 [Compound 230, {4-[2-(5-Chloro-2-fluoro-phenyl)-5-isopropyl-pyrimidin-4-ylamino)-pyridin-3-yl}-(4-hydroxy-piperidin-1-yl)-methanone]"
8,8.22,"CC(C)c1cnc(-c2cc(Cl)ccc2F)nc1Nc1ccncc1C(=O)NCCCN1CCC[C@@H]1C(=O)N(C)C [Compound 181, 4-[2-(5-Chloro-2-fluoro-phenyl)-5-isopropyl-pyrimidin-4-ylamino]-N-[3-(2-dimethylcarbamoyl-pyrrolidin-1-yl)-propyl]-nicotinamide]"
9,6.48,"O=C(c1cnccc1Nc1nc(-c2cc(Cl)ccc2F)ncc1C1CCCC1)N1CCOCC1 [Compound 227, {4-[2-(5-Chloro-2-fluoro-phenyl)-5-cyclopentyl-pyrimidin-4-ylamino]-pyridin-3-yl}-morpholin-4-yl-methanone]"
10,5.79,"CC(C)c1cnc(-c2cc(Cl)ccc2F)nc1Nc1ccncc1C(=O)N1CCN(C)CC1 [Compound 208, {4-[2-(5-Chloro-2-fluoro-phenyl)-5-isopropyl-pyrimidin-4-ylamino]-pyridin-3-yl}-(4-methyl-piperazin-1-yl)-methanone]"
11,7.20,"COc1cnc(-c2cc(Cl)ccc2F)nc1Nc1ccncc1C(=O)NCCCNS(C)(=O)=O [Compound 237, 4-[2-(5-Chloro-2-fluoro-phenyl)-5-methoxy-pyrimidin-4-ylamino]-N-(3-methanesulfonylamino-propyl)-nicotinamide]"
